The values below come from patent publication US20230192598A1, “NOVEL MODIFIED TETRACYCLINES FOR TREATMENT OF ALCOHOL USE DISORDER, PAIN AND OTHER DISORDERS INVOLVING POTENTIAL INFLAMMATORY PROCESSES” (Texas Tech University System, priority 2020, published 2023).

In one data set the test system is C57BL/6J mice. Nature of the data set: Drinking in the Dark (DID) model of AUD, ethanol consumption. The settings on record: for % DID: Table 3, ↓ = decrease of alcohol consumption; for reduction of ethanol consumption: by gavage, compared with i.p. The data set is classed as in vivo. The source says:
FIGS. 5A to 5C show, 5A) CMMs reduced acute ethanol consumption in the Drinking in the Dark model of AUD. MINO, DeDiAc, and TRI reduced ethanol consumption by over 50% by intraperitoneal injection (Left). […] 5B) Dose response curve for DeDIAc in female mice by gavage. 5C) Dose response curve for DeDIAc in male mice by gavage. MINO=minocycline, BeMAc=Butyl ether monoacetate minocycline, DeDiAc=De amino di acetyl minocycline, TRI=Tri acetyl minocycline. *p<0.05 compared to controls.
(§1) Purity and molecular formula verification of the CMM analogs were done using High Performance Liquid Chromatography (HPLC) Nuclear Magnetic Resonance spectroscopy (NMR) and Liquid Chromatography-Mass Spectrometry (LC-MS) after initial identification via Thin-layer Chromatography (TLC). Zone of inhibition (ZOI) and colony forming unit (CFU) assays were used to assess the antibacterial efficacy of our CMM analogs in E. coli cell culture. Drinking-in-the-Dark (DID) and Two-Bottle Choice (2BC) procedures were utilized in both female and male C57BL/6J mice to evaluate ethanol and water consumption. […] Butyl ether minocycline may be used for an AUD treatment.

In the next data set the test system is E. coli cell culture. Put plainly: Antibacterial efficacy of CMM ether analogs (ZOI and CFU assays, Example 2). The data set is classed as cell-based. The settings on record: for Anti-microbial action: Table 3.
Source text: as §1

The conditions of data set [1]: cited from earlier work.
The next data set has as its system AUD traits. The settings on record: seven tetracyclines tested (Syapin et al. 2016); cited from earlier work.
Data set [2] concerns E. coli. Nature of the data set: Zone of inhibition assay. The settings on record: 24 hour cell culture. It counts as cell-based.
Source text: (§2) MINO=minocycline, BeMAc=Butyl ether monoacetate minocycline, DeDiAc=De amino di acetyl minocycline, TRI=Tri acetyl minocycline.
as §1

Data set [3] concerns E. coli. Put plainly: Colony forming unit assay, antibacterial. The data set is classed as cell-based. The settings on record: 24 hour cell culture.
Source text: as §2, §1

[4] abbreviates: butyl ether minocycline 100 mg/kg, i.p.

“Also recorded” adds a separate entry of the source. A value given as a limit tells only on which side of the number the result lay.

Consider `CCCCOc1ccc(N(C)C)c2c1C(=O)C1=C(O)C3(O)C(=O)C(C(N)=O)=C(O)C(N(C)C)C3CC1C2.Cl` (stereo not drawn) [Butyl Ether Minocycline HCl, 10-Butoxy-4,7-bis-dimethylamino-3,12,12a-trihydroxy-1,11-dioxo-1,4,4a,5,5a,6,11,12a-octahydro-naphthacene-2-carboxylic acid amide hydrochloride], for which the “alcohol consumption (in words)” value in the data set on C57BL/6J mice (Example 2, butyl ether minocycline 100 mg/kg, i.p., hydrochloride) is given as “significantly reduced alcohol consumption; also recorded: greatest reduction in alcohol consumption”. In addition, in the data set on C57BL/6J mice (setting [4]), the “% DID” value is on record as 85%. In addition, the “antibiotic / antimicrobial activity (in words)” value with E. coli cell culture (Example 2, compared to minocycline) is listed as “lost antibiotic activity”. Further, in the data set with E. coli cell culture, the Anti-microbial action result is listed as “ND 64 mg/ml”.

Consider `CN(C)[C@@H]1C(O)=C(C(N)=O)C(=O)[C@@]2(O)C(O)=C3C(=O)c4c(O)ccc(Cl)c4[C@@H](O)[C@H]3C[C@@H]12` [Demeclocycline], for which, in data set [1], the LogD was −3.40 and the LogP was −1.07.

As to `C[C@H]1c2cccc(O)c2C(=O)C2=C(O)[C@]3(O)C(=O)C(C(N)=O)=C(O)[C@@H](N(C)C)[C@@H]3[C@@H](O)[C@@H]21` [Doxycycline], in data set [1], the LogD is reported as −3.29 and the LogP is listed as −0.54. Also, in the data set with AUD traits, the “effectiveness against AUD traits” value was “effective”.

As to `CCOc1ccc(N(C)C)c2c1C(=O)C1=C(O)C3(O)C(=O)C(C(N)=O)=C(O)C(N(C)C)C3CC1C2.Cl` (stereo not drawn) [Ethyl Ether Minocycline HCl, 4,7-Bis-dimethylamino-10-ethoxy-3,12,12a-trihydroxy-1,11-dioxo-1,4,4a,5,5a,6,11,12a-octahydro-naphthacene-2-carboxylic acid amide hydrochloride], the “% DID” value in the data set with C57BL/6J mice (setting [4]) amounted to 50%. Also, in the data set with E. coli cell culture, the Anti-microbial action is greater than 2 mg/mL.

For the compound `COc1ccc(N(C)C)c2c1C(=O)C1=C(O)C3(O)C(=O)C(C(N)=O)=C(O)C(N(C)C)C3CC1C2.Cl` (stereo not drawn) [Methyl Ether Minocycline HCl, 4,7-Bis-dimethylamino-3,12,12a-trihydroxy-10-methoxy-1,11-dioxo-1,4,4a,5,5a,6,11,12a-octahydro-naphthacene-2-carboxylic acid amide hydrochloride], in the data set with C57BL/6J mice (setting [4]), the “% DID” value was determined as 40%. The Anti-microbial action in the data set on E. coli cell culture was greater than 16 mg/mL.

`CN(C)c1ccc(O)c2c1CC1CC3C(N(C)C)C(O)=C(C(N)=O)C(=O)C3(O)C(O)=C1C2=O.Cl` (stereo not drawn) [Minocycline HCl, 4,7-Bis-dimethylamino-3,10,12,12a-tetrahydroxy-1,11-dioxo-1,4,4a,5,5a,6,11,12a-octahydro-naphthacene-2-carboxylic acid amide hydrochloride, reference compound]: in the data set with C57BL/6J mice (setting [4]), the “% DID” value is 75%. For the same compound, the Anti-microbial action with E. coli cell culture is greater than 0.125 mg/mL.

On to `CN(C)c1ccc(O)c2c1C[C@H]1C[C@H]3[C@H](N(C)C)C(=O)C(C(N)=O)=C(O)[C@@]3(O)C(=O)C1=C2O` [Minocycline, reference compound], for which, in the data set on C57BL/6J mice (Drinking in the Dark), the “reduction of ethanol consumption” value is recorded as “reduced ethanol consumption to a lesser degree”. In the data set with AUD traits, the “effectiveness against AUD traits” value was “effective”.

With `CN(C)[C@@H]1C(O)=C(C(N)=O)C(=O)[C@@]2(O)C(O)=C3C(=O)c4c(O)cccc4[C@@](C)(O)[C@H]3[C@H](O)[C@@H]12` [Oxytetracycline], in data set [1], the LogD is listed as −4.25 and the LogP is −1.5.

For the compound `CCCOc1ccc(N(C)C)c2c1C(=O)C1=C(O)C3(O)C(=O)C(C(N)=O)=C(O)C(N(C)C)C3CC1C2.Cl` (stereo not drawn) [Propyl Ether Minocycline HCl, 4,7-Bis-dimethylamino-3,12,12a-trihydroxy-1,11-dioxo-10-propoxy-1,4,4a,5,5a,6,11,12a-octahydro-naphthacene-2-carboxylic acid amide hydrochloride], the “% DID” value with C57BL/6J mice (setting [4]) worked out at 50%. In the data set with E. coli cell culture, this compound registered an Anti-microbial action greater than 4 mg/mL.

For `CN(C)c1cc(NC(=O)CNC(C)(C)C)c(O)c2c1C[C@H]1C[C@H]3[C@H](N(C)C)C(O)=C(C(N)=O)C(=O)[C@@]3(O)C(O)=C1C2=O` [Tigecycline], in data set [1], the LogD is given as −2.73 and the LogP is given as −1.30. Moreover, in the data set on AUD traits, the “effectiveness against AUD traits” value is “effective”.

On to “Butyl ether monoacetate minocycline [BeMAc]”, for which the “reduction of ethanol consumption” value in the data set with C57BL/6J mice (Drinking in the Dark) is on record as “reduced ethanol consumption to a lesser degree”.

Turning to De amino di acetyl minocycline [DeDiAc], in the data set on E. coli [2], the “antibacterial action, zone of inhibition” value was “loss of antibiotic activity”. The “antibacterial action, colony forming units” value in the data set with E. coli [3] was “loss of antibiotic activity”. Also, the “reduction of ethanol consumption” value in the data set with C57BL/6J mice (Drinking in the Dark) was “reduced ethanol consumption to a lesser degree”. In addition, the “ethanol consumption (in words)” value in the data set with C57BL/6J mice (Example 1, Drinking in the Dark, intraperitoneal and oral administration) is “significantly reduced ethanol consumption”.

On to Tri acetyl minocycline, for which the “reduction of ethanol consumption” value with C57BL/6J mice (Drinking in the Dark) was “reduced ethanol consumption to a lesser degree”.

In general, LogD refers to lipophilicity at a set pH, counting ionised and neutral species. A word on the LogP: it is a log measure of how a compound divides between an organic and an aqueous phase.
